Measured values as given in patent US20260015350A1, “AZAQUINAZOLINE PAN-KRAS INHIBITORS” (Mirati Therapeutics, Inc., priority 2022, published 2026).

Key:
[1] = tested on: KRas-mediated phosphorylation of ERK in H460 cells; assay: Inhibition of KRas-mediated phosphorylation of ERK (Cisbio HTRF pERK), H460 cells; assay type: cell-based; conditions: Homo sapiens, NCI-H460, HTRF pERK
Method in brief: (§1)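 Using 6,000 cells per well, compounds are applied for 3 hrs and cells then lysed at 4° C with shaking for 40 mins. Phospho-ERK is measured by HTRF after 2 hrs of lysate incubation with the d2/Cryptate antibody mixture.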

KRas^G12V = target: T1, KRas^G12V (Homo sapiens, UniProt P01116, G12V); assay: KRas binding assay (TR-FRET tracer displacement), KRas G12V
T1 construct: Biotinylated KRas (corresponding to amino acids 1-169, produced at Accelegan Inc.); biotin (biotinylated); purchased Accelegan Inc
T1 sequence (P01116 1-169 isoform P01116-2 G12V): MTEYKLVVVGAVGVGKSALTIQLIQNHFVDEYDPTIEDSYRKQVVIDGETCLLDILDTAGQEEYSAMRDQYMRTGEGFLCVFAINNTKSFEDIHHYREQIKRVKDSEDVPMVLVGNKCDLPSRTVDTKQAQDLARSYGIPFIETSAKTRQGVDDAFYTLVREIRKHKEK

KRas^G12R = target: T2, KRas^G12R (Homo sapiens, UniProt P01116, G12R); assay: KRas binding assay (TR-FRET tracer displacement), KRas G12R
T2 construct: Biotinylated KRas (corresponding to amino acids 1-169, produced at Accelegan Inc.); biotin (biotinylated); purchased Accelegan Inc
T2 sequence (P01116 1-169 isoform P01116-2 G12R): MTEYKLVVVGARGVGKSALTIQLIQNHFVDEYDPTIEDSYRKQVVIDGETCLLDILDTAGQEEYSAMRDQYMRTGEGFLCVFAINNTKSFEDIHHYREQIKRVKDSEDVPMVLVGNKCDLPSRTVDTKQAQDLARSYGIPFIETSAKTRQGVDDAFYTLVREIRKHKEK

[2] = tested on: KRas-mediated phosphorylation of ERK in PSN1 cells; assay: Inhibition of KRas-mediated phosphorylation of ERK (Cisbio HTRF pERK), PSN1 cells; assay type: cell-based; conditions: Homo sapiens
Method in brief: (§2)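 Seeding density was 6,000 cells/well; medium RPMI, 10% FBS. Read-out by homogeneous time-resolved fluorescence (pERK) after 4 hours covered at room temperature.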

[3] = tested on: KRas-mediated phosphorylation of ERK in H727 cells; assay: Inhibition of KRas-mediated phosphorylation of ERK (Cisbio HTRF pERK), H727 cells; assay type: cell-based; conditions: Homo sapiens, NCI-H727, H727 cells; HTRF pERK
Method in brief: as §1

[4] = tested on: KRas-mediated phosphorylation of ERK in AsPC-1 cells; assay: Inhibition of KRas-mediated phosphorylation of ERK (Cisbio HTRF pERK), AsPC-1 cells; assay type: cell-based; conditions: Homo sapiens, ASPC1, AsPC-1 cells; HTRF pERK
Method in brief: as §1

[5] = tested on: KRas-mediated phosphorylation of ERK in H358 cells; assay: Inhibition of KRas-mediated phosphorylation of ERK (Cisbio HTRF pERK), H358 cells; assay type: cell-based; conditions: Homo sapiens, NCI-H358, HTRF pERK
Method in brief: as §1

[6] = tested on: KRas-mediated phosphorylation of ERK in HCT116 cells; assay: Inhibition of KRas-mediated phosphorylation of ERK (Cisbio HTRF pERK), HCT116 cells; assay type: cell-based; conditions: Homo sapiens, HCT-116, HTRF pERK
Method in brief: (§3)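 Following a 3-hr exposure of cells to serially diluted compound (from 10 uM, 3-fold, 10 doses), cold lysis for 40 mins preceded a 2-hr room-temperature HTRF immunoassay for phosphorylated ERK.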

[7] = tested on: KRas-mediated phosphorylation of ERK in MKN1 cells; assay: Inhibition of KRas-mediated phosphorylation of ERK (Cisbio HTRF pERK), MKN1 cells; assay type: cell-based; conditions: Homo sapiens, MKN-1
Method in brief: as §2

KRas^G12D = target: T3, KRas^G12D (Homo sapiens, UniProt P01116, G12D); assay: KRas binding assay (TR-FRET tracer displacement), KRas G12D
T3 construct: Biotinylated KRas (corresponding to amino acids 1-169, produced at Accelegan Inc.); biotin (biotinylated); purchased Accelegan Inc
T3 sequence (P01116 1-169 isoform P01116-2 G12D): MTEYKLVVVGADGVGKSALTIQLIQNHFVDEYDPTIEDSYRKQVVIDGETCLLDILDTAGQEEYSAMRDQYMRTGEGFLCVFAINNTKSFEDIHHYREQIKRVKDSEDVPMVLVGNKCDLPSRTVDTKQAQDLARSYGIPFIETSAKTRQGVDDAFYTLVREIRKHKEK

[8] = tested on: KRas-mediated phosphorylation of ERK in A549 cells; assay: Inhibition of KRas-mediated phosphorylation of ERK (Cisbio HTRF pERK), A549 cells; assay type: cell-based; conditions: Homo sapiens, HTRF pERK
Method in brief: as §3

| IC50 [1] [nM] | IC50 (KRas^G12V) [nM] | IC50 (KRas^G12R) [nM] | IC50 [2] [nM] | IC50 [3] [nM] | IC50 [4] [nM] | IC50 [5] [nM] | IC50 [6] [nM] | IC50 [7] [nM] | IC50 (KRas^G12D) [nM] | IC50 [8] [nM] | Compound |
| --- | --- | --- | --- | --- | --- | --- | --- | --- | --- | --- | --- |
| 20 | < 2 | < 2 | > 10000 | 97 | 479 | 9 | 41 | 1 | 5 | 56 | CCc1c(F)ccc2cc(O)cc(-c3ncc4c(N5C[C@H]6CC[C@@H](C5)[C@@H]6O)nc(OC[C@@]56CCCN5C[C@H](F)C6)nc4c3F)c12 [Example 842, (1R,5S,8R)-3-(7-(8-ethyl-7-fluoro-3-hydroxynaphthalen-1-yl)-8-fluoro-2-(((2R,7aS)-2-fluorotetrahydro-1H-pyrrolizin-7a(5H)-yl)methoxy)pyrido[4,3-d]pyrimidin-4-yl)-3-azabicyclo[3.2.1]octan-8-ol] |
| 162 | 79 | 26 | > 10000 | 5300 | 6230 | 478 | 305 | 55 | 265 | 2510 | CCc1c(F)ccc2cc(O)cc(-c3ncc4c(N5CC6CCC(C5)C6(O)C(F)(F)F)nc(OC[C@@]56CCCN5C[C@H](F)C6)nc4c3F)c12 (stereo partly drawn) [Example 843, (1R,5S,8R)-3-(7-(8-ethyl-7-fluoro-3-hydroxynaphthalen-1-yl)-8-fluoro-2-(((2R,7aS)-2-fluorotetrahydro-1H-pyrrolizin-7a(5H)-yl)methoxy)pyrido[4,3-d]pyrimidin-4-yl)-8-(trifluoromethyl)-3-azabicyclo[3.2.1]octan-8-ol] |
| 80 | 10 | 11 | 3460 | 1150 | 1570 | 241 | 159 | 64 | 41 | 1190 | CCc1c(F)ccc2cc(O)cc(-c3ncc4c(N5CC6CCC(C5)C6CO)nc(OC[C@@]56CCCN5C[C@H](F)C6)nc4c3F)c12 (stereo partly drawn) [Example 845, 5-ethyl-6-fluoro-4-(8-fluoro-2-(((2R,7aS)-2-fluorotetrahydro-1H-pyrrolizin-7a(5H)-yl)methoxy)-4-((1R,5S,8S)-8-(hydroxymethyl)-3-azabicyclo[3.2.1]octan-3-yl)pyrido[4,3-d]pyrimidin-7-yl)naphthalen-2-ol] |
| 238 | 28 | 38 | > 10000 | 2850 | 4470 | 746 | 572 | 102 | 159 | 2680 | CCc1c(F)ccc2cc(O)cc(-c3ncc4c(N5CC6CCC(C5)C6(C)O)nc(OC[C@@]56CCCN5C[C@H](F)C6)nc4c3F)c12 (stereo partly drawn) [Example 846, (1R,5S,8R)-3-(7-(8-ethyl-7-fluoro-3-hydroxynaphthalen-1-yl)-8-fluoro-2-(((2R,7aS)-2-fluorotetrahydro-1H-pyrrolizin-7a(5H)-yl)methoxy)pyrido[4,3-d]pyrimidin-4-yl)-8-methyl-3-azabicyclo[3.2.1]octan-8-ol] |

Further lines, the molecule ahead of its results:

| Compound | IC50 [1] [nM] | IC50 (KRas^G12V) [nM] | IC50 (KRas^G12R) [nM] | IC50 [2] [nM] | IC50 [3] [nM] | IC50 [4] [nM] | IC50 [5] [nM] | IC50 [6] [nM] | IC50 [7] [nM] | IC50 (KRas^G12D) [nM] | IC50 [8] [nM] |
| --- | --- | --- | --- | --- | --- | --- | --- | --- | --- | --- | --- |
| CCc1c(F)ccc2cc(O)cc(-c3ncc4c(N5CCC[C@@](C)(O)C5)nc(OC[C@@]56CCCN5[C@H](COC)CC6)nc4c3F)c12 [Example 826, (R)-1-(7-(8-ethyl-7-fluoro-3-hydroxynaphthalen-1-yl)-8-fluoro-2-(((3S,7aS)-3-(methoxymethyl)tetrahydro-1H-pyrrolizin-7a(5H)-yl)methoxy)pyrido[4,3-d]pyrimidin-4-yl)-3-methylpiperidin-3-ol] | 30 | < 2 | < 2 | 2390 | 51 | 12 | 9 | 74 | 7 | < 2 | 44 |
| CCc1c(F)ccc2cc(O)cc(-c3ncc4c(N5CCC[C@@](C)(O)C5)nc(OCC56CC5CN(C)C6)nc4c3F)c12 (stereo partly drawn) [Example 827, (3R)-1-(7-(8-ethyl-7-fluoro-3-hydroxynaphthalen-1-yl)-8-fluoro-2-((3-methyl-3-azabicyclo[3.1.0]hexan-1-yl)methoxy)pyrido[4,3-d]pyrimidin-4-yl)-3-methylpiperidin-3-ol] | 92 | < 2 | 3 | > 10000 | 242 | 67 | 68 | 180 | 41 | < 2 | 159 |
| CCc1c(F)ccc2cc(O)cc(-c3ncc4c(N5CC6CCC(C(N)=O)(C6)C5)nc(OC[C@@]56CCCN5C[C@H](F)C6)nc4c3F)c12 (stereo partly drawn) [Example 834, 3-(7-(8-ethyl-7-fluoro-3-hydroxynaphthalen-1-yl)-8-fluoro-2-(((2R,7aS)-2-fluorotetrahydro-1H-pyrrolizin-7a(5H)-yl)methoxy)pyrido[4,3-d]pyrimidin-4-yl)-3-azabicyclo[3.2.1]octane-1-carboxamide] | 797 | 3 | 5 | > 10000 | 1140 | 3450 | 186 | 1200 | 87 | 8 | 2750 |
| C#Cc1c(F)ccc2cc(O)cc(-c3ncc4c(N5CCCC6(CC(O)C6)C5)nc(OC[C@]56CCCN5[C@H](COC(=O)N(C)C)CC6)nc4c3F)c12 (stereo partly drawn) [Example 835, ((3S,7aR)-7a-(((7-(8-ethynyl-7-fluoro-3-hydroxynaphthalen-1-yl)-8-fluoro-4-(2-hydroxy-6-azaspiro[3.5]nonan-6-yl)pyrido[4,3-d]pyrimidin-2-yl)oxy)methyl)hexahydro-1H-pyrrolizin-3-yl)methyl dimethylcarbamate] | 72 | < 2 | < 2 | 1620 | 72 | 146 | 31 | 137 | 20 | 3 | 192 |
| CCc1c(F)ccc2cc(O)cc(-c3ncc4c(N5CCOC[C@@]6(CCO6)C5)nc(OC[C@@]56CCCN5C[C@H](F)C6)nc4c3F)c12 [Example 836, 5-ethyl-6-fluoro-4-(8-fluoro-2-(((2R,7aS)-2-fluorotetrahydro-1H-pyrrolizin-7a(5H)-yl)methoxy)-4-((R)-1,6-dioxa-9-azaspiro[3.6]decan-9-yl)pyrido[4,3-d]pyrimidin-7-yl)naphthalen-2-ol] | 32 | 6 | 4 | 9790 | 231 | 386 | 22 | 119 | 19 | 24 | 69 |
| CCc1c(F)ccc2cc(O)cc(-c3ncc4c(N5CCOC[C@]6(CCO6)C5)nc(OC[C@@]56CCCN5C[C@H](F)C6)nc4c3F)c12 [Example 837, 5-ethyl-6-fluoro-4-(8-fluoro-2-(((2R,7aS)-2-fluorotetrahydro-1H-pyrrolizin-7a(5H)-yl)methoxy)-4-((S)-1,6-dioxa-9-azaspiro[3.6]decan-9-yl)pyrido[4,3-d]pyrimidin-7-yl)naphthalen-2-ol] | 14 | < 2 | < 2 | 2990 | 23 | 4 | 6 | 45 | 3 | < 2 | 11 |
| CCc1c(F)ccc2cc(O)cc(-c3ncc4c(N5CC6CCC(COCCO)(C6)C5)nc(OC[C@@]56CCCN5C[C@H](F)C6)nc4c3F)c12 (stereo partly drawn) [Example 840, 5-ethyl-6-fluoro-4-(8-fluoro-2-(((2R,7aS)-2-fluorotetrahydro-1H-pyrrolizin-7a(5H)-yl)methoxy)-4-(1-((2-hydroxyethoxy)methyl)-3-azabicyclo[3.2.1]octan-3-yl)pyrido[4,3-d]pyrimidin-7-yl)naphthalen-2-ol] | 145 | 4 | 7 | > 10000 | 299 | 575 | 180 | 239 | 38 | 9 | 422 |
